Experimental data as given in ChEMBL document CHEMBL5214999, “Identification and Optimization of a Ligand-Efficient Benzoazepinone Bromodomain and Extra Terminal (BET) Family Acetyl-Lysine Mimetic into the Oral Candidate Quality Molecule I-BET432” (J Med Chem, 2022).
≈ marks a conversion by molar mass, not a printed value.

Target: C-C motif chemokine 2 (Homo sapiens, UniProt P13500)
Sequence (P13500 whole entry): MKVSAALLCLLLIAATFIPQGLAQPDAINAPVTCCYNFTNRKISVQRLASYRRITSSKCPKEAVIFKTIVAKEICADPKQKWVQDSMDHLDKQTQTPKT
Experiment: Inhibition of MCP-1 in LPS-stimulated human whole blood incubate for 24 hrs by immuno assay
Type: tissue-based
Settings: not given
`CCOc1ccc2c(c1)C(c1cn(C)cn1)=CN(C)C(=O)[C@@H]2C` gave an IC50 of 50.1 nM.
Molecule `CCS(=O)(=O)c1ccc2c(c1)C(c1cnn(C)c1)=CN(C)C(=O)[C@@H]2C` has an IC50 of 39.8 nM.
`CCS(=O)(=O)c1ccc2c(c1)C(C)=CN(C)C(=O)[C@@H]2C` showed an IC50 of 158 nM.
For `Cc1nc(C2=CN(C)C(=O)[C@H](C)c3ccc(OCCO)cc32)c[nH]1`, the IC50 was 39.8 nM.
For `C[C@H]1C(=O)N(C)C=C(c2cnn(C)c2)c2cc(C(CO)CO)ccc21`, the IC50 was 31.6 nM.
Molecule `CCOc1ccc2c(c1)C(c1cnn(C)c1)=CN(C)C(=O)[C@@H]2C` has an IC50 of 20 nM.
With `C[C@H]1C(=O)N(C)C=Cc2cc(CN3CCOCC3)ccc21` the IC50 was 398 nM.
Molecule `CCOc1ccc2c(c1)C(c1c[nH]c(C)n1)=CN(C)C(=O)[C@@H]2C` has an IC50 of 15.8 nM.
`CCOc1ccc2c(c1)C=CN(C)C(=O)C2C` (racemic) showed an IC50 of 3160 nM.
Molecule `CCOc1ccc2c(c1)C(c1cc[nH]n1)=CN(C)C(=O)C2C` (racemic) has an IC50 of 126 nM.
Molecule `CCS(=O)(=O)c1ccc2c(c1)C(c1ccccc1)=CN(C)C(=O)C2C` (racemic) has an IC50 of 1580 nM.
With `CC1C(=O)N(C)C=Cc2cc(OCC(C)(C)O)ccc21` (racemic) the IC50 was 631 nM.
For `CCS(=O)(=O)c1ccc2c(c1)C(c1ccncc1)=CN(C)C(=O)C2C` (racemic), the IC50 was 1260 nM.
In the case of `C[C@H]1C(=O)N(C)C=Cc2ccccc21` (racemic), the IC50 is reported as 5010 nM.

Tested on: not listed separately
Experiment: Lipophilicity, logD of compound at pH 7.4 by Chromatography
Type: physicochemical
Settings: buffer
In the case of `CCOc1ccc2c(c1)C(c1cn(C)cn1)=CN(C)C(=O)[C@@H]2C`, the chromatographic logD is reported as 3.6.
With `CCS(=O)(=O)c1ccc2c(c1)C(c1cnn(C)c1)=CN(C)C(=O)[C@@H]2C` the chromatographic logD was 2.8.
Molecule `CCS(=O)(=O)c1ccc2c(c1)C(C)=CN(C)C(=O)[C@@H]2C` has a chromatographic logD of 3.4.
`Cc1nc(C2=CN(C)C(=O)[C@H](C)c3ccc(OCCO)cc32)c[nH]1` gave a chromatographic logD of 1.5.
`C[C@H]1C(=O)N(C)C=C(c2cnn(C)c2)c2cc(C(CO)CO)ccc21` gave a chromatographic logD of 1.4.
With `CCOc1ccc2c(c1)C(c1cnn(C)c1)=CN(C)C(=O)[C@@H]2C` the chromatographic logD was 4.1.
`C[C@H]1C(=O)N(C)C=Cc2cc(CN3CCOCC3)ccc21` showed a chromatographic logD of 3.3.
Work on `CCOc1ccc2c(c1)C(c1c[nH]c(C)n1)=CN(C)C(=O)[C@@H]2C` yielded a chromatographic logD of 3.1.
`CCOc1ccc2c(c1)C=CN(C)C(=O)C2C` (racemic) showed a chromatographic logD of 5.
With `CCOc1ccc2c(c1)C(c1cc[nH]n1)=CN(C)C(=O)C2C` (racemic) the chromatographic logD was 3.8.
With `CCS(=O)(=O)c1ccc2c(c1)C(c1ccccc1)=CN(C)C(=O)C2C` (racemic) the chromatographic logD was 5.1.
For `CC1C(=O)N(C)C=Cc2cc(OCC(C)(C)O)ccc21` (racemic), the chromatographic logD was 3.6.
Molecule `CCS(=O)(=O)c1ccc2c(c1)C(c1ccncc1)=CN(C)C(=O)C2C` (racemic) has a chromatographic logD of 2.8.
`C[C@H]1C(=O)N(C)C=Cc2ccccc21` (racemic) showed a chromatographic logD of 4.3.

Tested on: not listed separately
Experiment: Solubility of the compound in saline by CLND method
Type: physicochemical
Settings: not given
Molecule `CCOc1ccc2c(c1)C(c1cn(C)cn1)=CN(C)C(=O)[C@@H]2C` has a solubility kinetic of 117 µg/mL (≈ 376 µM).
For `CCS(=O)(=O)c1ccc2c(c1)C(c1cnn(C)c1)=CN(C)C(=O)[C@@H]2C`, the solubility kinetic was at least 222 µg/mL.
`CCS(=O)(=O)c1ccc2c(c1)C(C)=CN(C)C(=O)[C@@H]2C` showed a solubility kinetic of at least 131 µg/mL.
With `Cc1nc(C2=CN(C)C(=O)[C@H](C)c3ccc(OCCO)cc32)c[nH]1` the solubility kinetic was at least 185 µg/mL.
For `C[C@H]1C(=O)N(C)C=C(c2cnn(C)c2)c2cc(C(CO)CO)ccc21`, the solubility kinetic was at least 208 µg/mL.
`CCOc1ccc2c(c1)C(c1cnn(C)c1)=CN(C)C(=O)[C@@H]2C` gave a solubility kinetic of 143 µg/mL (≈ 459 µM).
`C[C@H]1C(=O)N(C)C=Cc2cc(CN3CCOCC3)ccc21` showed a solubility kinetic of at least 142 µg/mL.
`CCOc1ccc2c(c1)C(c1c[nH]c(C)n1)=CN(C)C(=O)[C@@H]2C` showed a solubility kinetic of at least 135 µg/mL.
For `CCOc1ccc2c(c1)C=CN(C)C(=O)C2C` (racemic), the solubility kinetic was at least 120 µg/mL.
In the case of `CCOc1ccc2c(c1)C(c1cc[nH]n1)=CN(C)C(=O)C2C` (racemic), the solubility kinetic is reported as at least 99 µg/mL.
In the case of `CCS(=O)(=O)c1ccc2c(c1)C(c1ccccc1)=CN(C)C(=O)C2C` (racemic), the solubility kinetic is reported as at least 146 µg/mL.
`CC1C(=O)N(C)C=Cc2cc(OCC(C)(C)O)ccc21` (racemic) showed a solubility kinetic of at least 131 µg/mL.
For `CCS(=O)(=O)c1ccc2c(c1)C(c1ccncc1)=CN(C)C(=O)C2C` (racemic), the solubility kinetic was 128 µg/mL (≈ 359 µM).
Work on `C[C@H]1C(=O)N(C)C=Cc2ccccc21` (racemic) yielded a solubility kinetic of at least 86 µg/mL.

Tested on: not listed separately
Experiment: Intrinsic clearance in human hepatocytes measured after 120 mins by LC-MS/MS analysis
Type: ADME, cell-based, Hepatocyte
Settings: 2 h
`CCS(=O)(=O)c1ccc2c(c1)C(c1cnn(C)c1)=CN(C)C(=O)[C@@H]2C` showed a CLH of under 0.45 mL/min/g.
`CCS(=O)(=O)c1ccc2c(c1)C(C)=CN(C)C(=O)[C@@H]2C` gave a CLH of under 0.45 mL/min/g.
`CCOc1ccc2c(c1)C(c1cnn(C)c1)=CN(C)C(=O)[C@@H]2C` gave a CLH of 9.14 mL/min/g.
`C[C@H]1C(=O)N(C)C=Cc2cc(CN3CCOCC3)ccc21` showed a CLH of under 0.45 mL/min/g.

Target: T1, Bromodomain-containing protein 4 (Homo sapiens, UniProt O60885)
Experiment: Inhibition of BRD4 BD1 (unknown origin) measured by TR-FRET assay
Settings: not given
Work on `CCOc1ccc2c(c1)C(c1cn(C)cn1)=CN(C)C(=O)[C@@H]2C` yielded an IC50 of 31.6 nM.
With `CCS(=O)(=O)c1ccc2c(c1)C(c1cnn(C)c1)=CN(C)C(=O)[C@@H]2C` the IC50 was 39.8 nM.
`CCS(=O)(=O)c1ccc2c(c1)C(C)=CN(C)C(=O)[C@@H]2C` gave an IC50 of 79.4 nM.
With `Cc1nc(C2=CN(C)C(=O)[C@H](C)c3ccc(OCCO)cc32)c[nH]1` the IC50 was 20 nM.
For `C[C@H]1C(=O)N(C)C=C(c2cnn(C)c2)c2cc(C(CO)CO)ccc21`, the IC50 was 31.6 nM.
With `CCOc1ccc2c(c1)C(c1cnn(C)c1)=CN(C)C(=O)[C@@H]2C` the IC50 was 10 nM.
Work on `C[C@H]1C(=O)N(C)C=Cc2cc(CN3CCOCC3)ccc21` yielded an IC50 of 158 nM.
Work on `CCOc1ccc2c(c1)C(c1c[nH]c(C)n1)=CN(C)C(=O)[C@@H]2C` yielded an IC50 of 12.6 nM.
With `CCOc1ccc2c(c1)C=CN(C)C(=O)C2C` (racemic) the IC50 was 501 nM.
`CCOc1ccc2c(c1)C(c1cc[nH]n1)=CN(C)C(=O)C2C` (racemic) showed an IC50 of 31.6 nM.
`CCS(=O)(=O)c1ccc2c(c1)C(c1ccccc1)=CN(C)C(=O)C2C` (racemic) gave an IC50 of 251 nM.
`CC1C(=O)N(C)C=Cc2cc(OCC(C)(C)O)ccc21` (racemic) showed an IC50 of 251 nM.
With `CCS(=O)(=O)c1ccc2c(c1)C(c1ccncc1)=CN(C)C(=O)C2C` (racemic) the IC50 was 631 nM.
With `C[C@H]1C(=O)N(C)C=Cc2ccccc21` (racemic) the IC50 was 1580 nM.

Tested on: not listed separately
Experiment: Artificial membrane permeability of the compound
Type: ADME
Settings: PAMPA; read-out: permeability
Molecule `CCOc1ccc2c(c1)C(c1cn(C)cn1)=CN(C)C(=O)[C@@H]2C` has a Papp of 69 ×10⁻⁶ cm/s.
For `CCS(=O)(=O)c1ccc2c(c1)C(c1cnn(C)c1)=CN(C)C(=O)[C@@H]2C`, the Papp was 14.5 ×10⁻⁶ cm/s.
`CCS(=O)(=O)c1ccc2c(c1)C(C)=CN(C)C(=O)[C@@H]2C` gave a Papp of 15 ×10⁻⁶ cm/s.
`Cc1nc(C2=CN(C)C(=O)[C@H](C)c3ccc(OCCO)cc32)c[nH]1` gave a Papp of under 0.3 ×10⁻⁶ cm/s.
For `C[C@H]1C(=O)N(C)C=C(c2cnn(C)c2)c2cc(C(CO)CO)ccc21`, the Papp was under 0.3 ×10⁻⁶ cm/s.
`CCOc1ccc2c(c1)C(c1cnn(C)c1)=CN(C)C(=O)[C@@H]2C` gave a Papp of 57 ×10⁻⁶ cm/s.
Work on `C[C@H]1C(=O)N(C)C=Cc2cc(CN3CCOCC3)ccc21` yielded a Papp of 77.5 ×10⁻⁶ cm/s.
Molecule `CCOc1ccc2c(c1)C(c1c[nH]c(C)n1)=CN(C)C(=O)[C@@H]2C` has a Papp of 40 ×10⁻⁶ cm/s.
`CCOc1ccc2c(c1)C=CN(C)C(=O)C2C` (racemic) gave a Papp of 70 ×10⁻⁶ cm/s.
In the case of `CCOc1ccc2c(c1)C(c1cc[nH]n1)=CN(C)C(=O)C2C` (racemic), the Papp is reported as 54 ×10⁻⁶ cm/s.
`CCS(=O)(=O)c1ccc2c(c1)C(c1ccccc1)=CN(C)C(=O)C2C` (racemic) gave a Papp of 100 ×10⁻⁶ cm/s.
`CC1C(=O)N(C)C=Cc2cc(OCC(C)(C)O)ccc21` (racemic) gave a Papp of 74 ×10⁻⁶ cm/s.
`CCS(=O)(=O)c1ccc2c(c1)C(c1ccncc1)=CN(C)C(=O)C2C` (racemic) gave a Papp of 35 ×10⁻⁶ cm/s.
Work on `C[C@H]1C(=O)N(C)C=Cc2ccccc21` (racemic) yielded a Papp of 100 ×10⁻⁶ cm/s.

Tested on: not listed separately
Experiment: Intrinsic clearance in rat hepatocytes after 60 mins by LC-MS/MS analysis
Type: ADME, cell-based, Hepatocyte
Settings: 1 h
`CCS(=O)(=O)c1ccc2c(c1)C(c1cnn(C)c1)=CN(C)C(=O)[C@@H]2C` showed a CLH of 2.44 mL/min/g.
`CCS(=O)(=O)c1ccc2c(c1)C(C)=CN(C)C(=O)[C@@H]2C` showed a CLH of 1.18 mL/min/g.
With `CCOc1ccc2c(c1)C(c1cnn(C)c1)=CN(C)C(=O)[C@@H]2C` the CLH was 72.36 mL/min/g.
With `C[C@H]1C(=O)N(C)C=Cc2cc(CN3CCOCC3)ccc21` the CLH was 23.76 mL/min/g.

Tested on: not listed separately
Experiment: Intrinsic clearance in dog hepatocytes incubated upto 45 mins by LC-MS/MS analysis
Type: ADME, cell-based, Canis lupus familiaris, Hepatocyte
Settings: 0.75 h
`CCS(=O)(=O)c1ccc2c(c1)C(c1cnn(C)c1)=CN(C)C(=O)[C@@H]2C` gave a CLH of under 0.65 mL/min/g.
Molecule `CCS(=O)(=O)c1ccc2c(c1)C(C)=CN(C)C(=O)[C@@H]2C` has a CLH of 0.77 mL/min/g.
With `CCOc1ccc2c(c1)C(c1cnn(C)c1)=CN(C)C(=O)[C@@H]2C` the CLH was under 0.65 mL/min/g.
`C[C@H]1C(=O)N(C)C=Cc2cc(CN3CCOCC3)ccc21` showed a CLH of 3.37 mL/min/g.

Target: T1, Bromodomain-containing protein 4
Experiment: Inhibition of BRD4 BD2 (unknown origin) measured by TR-FRET assay
Settings: not given
In the case of `CCOc1ccc2c(c1)C(c1cn(C)cn1)=CN(C)C(=O)[C@@H]2C`, the IC50 is reported as 25.1 nM.
With `CCS(=O)(=O)c1ccc2c(c1)C(c1cnn(C)c1)=CN(C)C(=O)[C@@H]2C` the IC50 was 79.4 nM.
`CCS(=O)(=O)c1ccc2c(c1)C(C)=CN(C)C(=O)[C@@H]2C` gave an IC50 of 251 nM.
For `Cc1nc(C2=CN(C)C(=O)[C@H](C)c3ccc(OCCO)cc32)c[nH]1`, the IC50 was 31.6 nM.
Molecule `C[C@H]1C(=O)N(C)C=C(c2cnn(C)c2)c2cc(C(CO)CO)ccc21` has an IC50 of 100 nM.
In the case of `CCOc1ccc2c(c1)C(c1cnn(C)c1)=CN(C)C(=O)[C@@H]2C`, the IC50 is reported as 7.94 nM.
For `C[C@H]1C(=O)N(C)C=Cc2cc(CN3CCOCC3)ccc21`, the IC50 was 631 nM.
With `CCOc1ccc2c(c1)C(c1c[nH]c(C)n1)=CN(C)C(=O)[C@@H]2C` the IC50 was 20 nM.
With `CCOc1ccc2c(c1)C=CN(C)C(=O)C2C` (racemic) the IC50 was 1000 nM.
With `CCOc1ccc2c(c1)C(c1cc[nH]n1)=CN(C)C(=O)C2C` (racemic) the IC50 was 20 nM.
Molecule `CCS(=O)(=O)c1ccc2c(c1)C(c1ccccc1)=CN(C)C(=O)C2C` (racemic) has an IC50 of 501 nM.
`CC1C(=O)N(C)C=Cc2cc(OCC(C)(C)O)ccc21` (racemic) gave an IC50 of 794 nM.
`CCS(=O)(=O)c1ccc2c(c1)C(c1ccncc1)=CN(C)C(=O)C2C` (racemic) gave an IC50 of 1580 nM.
For `C[C@H]1C(=O)N(C)C=Cc2ccccc21` (racemic), the IC50 was 5010 nM.
